The source of these data is patent publication EP3270157B1, “SCREENING ASSAY FOR SWEETNESS” (Firmenich SA, priority 2016, dated 2018).

Where two headings read alike, the source gives them in different places.

For this data set, the target named is T1, T1R2/T1R3 receptor (Homo sapiens, UniProt Q7RTX0+Q8TE23).
T1 sequence (Q8TE23 20-839): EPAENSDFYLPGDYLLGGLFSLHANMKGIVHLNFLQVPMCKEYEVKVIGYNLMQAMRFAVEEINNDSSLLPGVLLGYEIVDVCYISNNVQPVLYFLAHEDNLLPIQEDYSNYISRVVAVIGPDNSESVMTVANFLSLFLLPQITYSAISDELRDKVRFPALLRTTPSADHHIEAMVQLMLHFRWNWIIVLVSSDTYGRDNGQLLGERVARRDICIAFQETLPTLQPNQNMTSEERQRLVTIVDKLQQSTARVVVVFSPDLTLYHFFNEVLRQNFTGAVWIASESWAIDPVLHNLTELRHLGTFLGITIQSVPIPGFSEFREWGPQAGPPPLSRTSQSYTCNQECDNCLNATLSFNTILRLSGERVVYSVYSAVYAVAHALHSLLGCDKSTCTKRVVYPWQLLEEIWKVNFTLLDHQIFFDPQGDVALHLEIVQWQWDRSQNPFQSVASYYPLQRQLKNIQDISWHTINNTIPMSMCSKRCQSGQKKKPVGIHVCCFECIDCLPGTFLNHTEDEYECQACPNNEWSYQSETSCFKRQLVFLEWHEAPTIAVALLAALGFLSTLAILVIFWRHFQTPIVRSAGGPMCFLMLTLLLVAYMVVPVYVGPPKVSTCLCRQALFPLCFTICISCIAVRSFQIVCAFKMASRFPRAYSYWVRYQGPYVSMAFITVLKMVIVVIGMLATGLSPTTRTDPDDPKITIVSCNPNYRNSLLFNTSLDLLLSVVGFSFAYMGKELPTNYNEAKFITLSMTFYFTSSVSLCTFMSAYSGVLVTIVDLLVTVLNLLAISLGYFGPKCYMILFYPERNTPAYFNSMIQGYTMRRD
T1 sequence (Q7RTX0 21-852): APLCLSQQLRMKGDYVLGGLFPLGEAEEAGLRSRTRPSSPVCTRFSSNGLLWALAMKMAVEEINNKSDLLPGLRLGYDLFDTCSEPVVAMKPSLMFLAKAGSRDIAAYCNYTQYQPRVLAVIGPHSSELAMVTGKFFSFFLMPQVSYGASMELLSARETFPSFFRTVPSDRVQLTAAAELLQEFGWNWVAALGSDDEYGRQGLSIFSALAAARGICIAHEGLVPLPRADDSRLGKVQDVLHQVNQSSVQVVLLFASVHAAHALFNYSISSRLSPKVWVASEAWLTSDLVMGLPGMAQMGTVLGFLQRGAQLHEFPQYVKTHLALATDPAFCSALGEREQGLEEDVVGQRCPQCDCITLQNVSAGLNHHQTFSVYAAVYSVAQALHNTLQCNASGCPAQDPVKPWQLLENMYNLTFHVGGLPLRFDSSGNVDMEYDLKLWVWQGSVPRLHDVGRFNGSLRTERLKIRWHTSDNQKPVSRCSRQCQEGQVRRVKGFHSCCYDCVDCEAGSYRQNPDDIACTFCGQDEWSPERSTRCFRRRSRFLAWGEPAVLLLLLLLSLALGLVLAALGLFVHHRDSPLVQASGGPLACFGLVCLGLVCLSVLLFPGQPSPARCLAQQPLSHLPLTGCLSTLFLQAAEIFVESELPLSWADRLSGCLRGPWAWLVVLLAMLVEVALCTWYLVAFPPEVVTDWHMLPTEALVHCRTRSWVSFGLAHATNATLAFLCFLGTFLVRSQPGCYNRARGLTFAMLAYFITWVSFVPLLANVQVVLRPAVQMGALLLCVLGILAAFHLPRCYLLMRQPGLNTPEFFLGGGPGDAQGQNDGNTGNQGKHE
The settings on record: for sensitivity of the assay to initiate receptor internalisation: comparison among the sweet compounds tested; for increase of chemiluminescence signal / internalisation response with concentration: shape of dose-response curve, Fig. 6A and 6B.

Where [1] appears, read: Clone #1057 cells, % (w/v), Fig. 6.
Setting [2] is: Clone #1057 cells, 3 h at 20°C, n=3, Fig. 6.

Excerpt: Binding of beta-arrestin will then stimulate receptor internalisation to the endosome, bringing the EA (enzyme part fused to beta-arrestin) and ProLink (enzyme part fused to the endosome) enzyme parts of beta-gal in close proximity to each other, enabling the formation of a functional beta-gal enzyme. The level of functional beta-Gal formed is a measure for ligand-induced receptor internalisation activity and is quantified by lysing cells using the PathHunter™ substrate mix, allowing the conversion of substrate to chemiluminescence.
PathHunter™HEK293 Active Internalisation Parental cells (HEK-293 cells natively expressing the sweet taste receptor and comprising the enzyme complementation system) were maintained in high glucose Dulbecco's modified Eagle's medium (4.5 g/l D-glucose, L-glutamine, HEPES) supplemented with 10% fetal bovine serum (DMEM-HG) at 37°C, 5% CO2 and 90% humidity.
For the beta-arrestin mediated internalization assay cells were grown and maintained in DMEM-HG. […] After 18 h of glucose starvation, cells were seeded in DMEM-LG at a density of 2.5×10^4 cells per well in a clear Poly-D-Lysine coated 96-well plate (CellCoat; Greiner Bio-One GmbH, Frickenhausen, Germany) and incubated for 24 h. Next, the PathHunter™ Detection assay kit was used for receptor stimulation according to the manufacturer's instructions. […] After 3 h of incubation at 20°C, the stimulant was removed and PathHunter™ substrate was added in 100 µl CP10 Cell Plating Reagents. Luminescence was measured using an Infinite F200 (Tecan Group Ltd., Männedorf, Switzerland). Analysis was performed in triplicates (n=3). Data are presented as the mean luminescence change (ΔF) over the base-line level (F): ΔF/F = (F(stimulant)−F(negativecontrol))/F(negativecontrol).

Take `CC1=CC(=O)NS(=O)(=O)O1` [acesulfame-K]: the “concentration at which the maximum response (ΔF/Fmax) was reached” value (from here on “concentration … (ΔF/Fmax) was reached”) amounted to 5.5%.

In the case of `O=C(CO)[C@@H](O)[C@H](O)[C@H](O)CO` [fructose], the “increase of chemiluminescence signal / internalisation response with concentration” value is on record as “rather slow increase”. Moreover, under setting [1], the “concentration … (ΔF/Fmax) was reached” value is 9%. The “sensitivity of the assay to initiate receptor internalisation” value (shortened to “sensitivity of the assay”) (Fig. 6) is recorded as “highest sensitivity”. Also, the “maximum level of chemiluminescence (ΔF/Fmax)” value (“maximum level … (ΔF/Fmax)” below) (human, hek293 cells, 3 h) is given as 5.2.

For the compound `OC[C@@H](O)[C@@H](O[C@H]1O[C@H](CO)[C@@H](O)[C@H](O)[C@H]1O)[C@H](O)[C@@H](O)CO` [maltitol], the “maximum level … (ΔF/Fmax)” value under setting [2] was “nearly equal”. The “concentration … (ΔF/Fmax) was reached” value under setting [1] worked out at 17.0%.

Consider `OC[C@H]1O[C@H](O[C@H]2[C@H](O)[C@@H](O)[C@H](O)O[C@@H]2CO)[C@H](O)[C@@H](O)[C@@H]1O` [maltose], for which the “increase of chemiluminescence signal / internalisation response with concentration” value is recorded as “steep increase”. For the same compound, the “concentration … (ΔF/Fmax) was reached” value under setting [1] was determined as 16.5%. Besides, the “sensitivity of the assay” value (Fig. 6) is “lowest sensitivity of the natural sugars tested”.

For `OC[C@@H](O)[C@@H](O)[C@H](O)[C@H](O)CO` [mannitol], under setting [2], the “maximum level … (ΔF/Fmax)” value is listed as “nearly equal”. Further, under setting [1], the “concentration … (ΔF/Fmax) was reached” value is 7.7%.

With `OC[C@H]1O[C@H](O[C@]2(CCl)O[C@H](CCl)[C@@H](O)[C@@H]2O)[C@H](O)[C@@H](O)[C@H]1Cl` [sucralose], the “concentration … (ΔF/Fmax) was reached” value under setting [1] came to 15%. In addition, the “concentration at which receptor internalisation responses were initiated” value (Clone #1057 cells, Fig. 6) was “already observed at the lowest concentration tested”. In addition, the “sensitivity of the assay” value (Fig. 6) is “high sensitivity”.

For the compound `OC[C@H]1O[C@@](CO)(O[C@H]2O[C@H](CO)[C@@H](O)[C@H](O)[C@H]2O)[C@@H](O)[C@@H]1O` [sucrose], the “increase of chemiluminescence signal / internalisation response with concentration” value is “rather slow increase”.
